Patent publication US8017755B2, “RNA-based transcriptional regulators” (President and Fellows of Harvard College, priority 2003, dated 2011)

Experiments:
[1] = Gal4-VP16 fusions versus intact Gal4; cited from earlier work
HIS3 gene = assay: Survival on media lacking histidine in strain L40-ura3, which lacks the LexA-MS2 fusion protein; type: cell-based, S. cerevisiae
From the text: To test whether the evolved RNAs require the MS2 protein-mediated localization to the LexA promoter, we introduced the plasmids expressing two representative active clones (m26-11 and m26-15) into the yeast strain L40-ura3 which lacks the LexA-MS2 fusion protein but is otherwise identical to YBZ-1 (Bernstein, D. S., Buter, N., Stumpf, C., and Wickens, M. (2002). Analyzing mRNA-protein complexes using a yeast three-hybrid system. Methods 26, 123-141).
Media consisted of yeast nitrogen base (Sigma), 4% dextrose, and synthetic drop out supplements lacking histidine or histidine and uracil (Clontech). Yeast were cultured either in liquid medium or on agar plates at 30° C. S. cerevisiae strains YBZ-1 (MATa, ura3-52, leu2-3, 112, his3-200, trp1-1, ade2, LYS2::(LexA op)-HIS3, ura3::(LexA op)-LacZ, LexA-MS2-MS2 coat (N55K)) and L40-ura3 (MATa, ura3-52, leu2-3112, his3Δ200, trp1Δ1, ade2, LYS2::(LexA op)-HIS3, ura3::(LexA op)-LacZ) were a gift from Professor Marvin Wickens (Bernstein, D. S., Buter, N., Stumpf, C., and Wickens, M. (2002). Analyzing mRNA-protein complexes using a yeast three-hybrid system. Methods 26, 123-141).

TMR-binding aptamer = conditions: cited from earlier work
yeast = conditions: cited from earlier work
S. cerevisiae = assay: Growth of yeast cultures in varying TMR concentrations; conditions: 10 μM TMR
S. cerevisiae cell wall = conditions: cited from earlier work

VP16
transcriptional activation, fold more potent than Gal4 [1]: 100 fold

m26-15: evolved N40-26 variant SEQ ID NO: 28 CGCGGACCAAUGGU-CCCCCAAGUGGAUGCCUAAGCCUCUU (DNA CGCGGACCAAUGGUCCCCCAAGUGGAUGCCUAAGCCUCUU; listed as RNA, chemistry not given here)
survival on media lacking histidine without LexA-MS2 fusion protein (HIS3 gene): unable to survive

CN(C)c1ccc2c(-c3ccc(CCl)cc3)c3ccc(=[N+](C)C)cc-3oc2c1 [TMR, tetramethylrosamine]
Kd (TMR-binding aptamer): 40 nM | concentration non-toxic to yeast (yeast): up to 1 μM | growth inhibition of yeast (S. cerevisiae): Slight growth inhibition | crossing of the S. cerevisiae cell wall (S. cerevisiae cell wall): cross the S. cerevisiae cell wall
